Reference: US20200031866A1, “PEPTIDE INHIBITORS OF SODIUM CHANNELS” (SPYRYX BIOSCIENCES, INC., priority 2016, published 2020)
Square brackets hold non-standard residues; d marks the D form. Ends that are not written are not given here. Nle = CCCC[C@H](N)C(=O)O

T1: alpha-ENaC (Homo sapiens, UniProt P37088+P51168+P51170)
T1 construct: expressed in transfected cells; host or cells: HEK293T
T1 sequence (P37088 1-669): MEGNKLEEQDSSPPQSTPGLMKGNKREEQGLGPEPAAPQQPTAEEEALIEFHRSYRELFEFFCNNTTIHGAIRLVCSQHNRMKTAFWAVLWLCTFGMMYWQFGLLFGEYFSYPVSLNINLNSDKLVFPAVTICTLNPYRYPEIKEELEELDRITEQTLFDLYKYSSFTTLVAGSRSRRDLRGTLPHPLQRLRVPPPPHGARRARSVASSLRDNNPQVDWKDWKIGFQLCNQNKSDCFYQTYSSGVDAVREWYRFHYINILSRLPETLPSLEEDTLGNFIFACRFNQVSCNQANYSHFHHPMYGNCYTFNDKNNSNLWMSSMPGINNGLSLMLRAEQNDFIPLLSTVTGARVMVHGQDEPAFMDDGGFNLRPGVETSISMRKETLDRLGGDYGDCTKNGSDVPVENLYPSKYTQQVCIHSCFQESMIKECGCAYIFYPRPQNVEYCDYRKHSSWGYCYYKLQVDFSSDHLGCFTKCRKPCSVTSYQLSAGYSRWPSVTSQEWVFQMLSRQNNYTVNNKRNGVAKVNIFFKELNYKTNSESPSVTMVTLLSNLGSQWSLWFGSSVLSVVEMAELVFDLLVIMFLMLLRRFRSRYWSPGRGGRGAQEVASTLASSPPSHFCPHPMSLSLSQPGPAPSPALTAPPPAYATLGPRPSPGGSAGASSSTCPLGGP
T1 sequence (P51168 1-640): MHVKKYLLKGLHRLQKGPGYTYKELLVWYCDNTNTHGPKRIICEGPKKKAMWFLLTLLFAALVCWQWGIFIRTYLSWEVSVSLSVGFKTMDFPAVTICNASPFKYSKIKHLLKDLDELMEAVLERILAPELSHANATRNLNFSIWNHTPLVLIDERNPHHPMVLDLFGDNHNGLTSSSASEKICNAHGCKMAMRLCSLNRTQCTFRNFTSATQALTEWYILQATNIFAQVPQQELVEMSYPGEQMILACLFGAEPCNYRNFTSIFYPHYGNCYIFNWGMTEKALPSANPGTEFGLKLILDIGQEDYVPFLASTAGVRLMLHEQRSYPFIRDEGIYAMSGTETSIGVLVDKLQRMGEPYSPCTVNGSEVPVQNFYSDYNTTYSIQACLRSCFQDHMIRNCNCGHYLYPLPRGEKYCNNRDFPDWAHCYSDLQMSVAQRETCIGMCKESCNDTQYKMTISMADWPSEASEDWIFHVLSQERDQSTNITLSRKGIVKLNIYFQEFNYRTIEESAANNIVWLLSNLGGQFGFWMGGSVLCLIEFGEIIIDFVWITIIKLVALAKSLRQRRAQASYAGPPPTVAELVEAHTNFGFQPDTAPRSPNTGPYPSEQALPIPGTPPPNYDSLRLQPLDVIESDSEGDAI
T1 sequence (P51170 1-649): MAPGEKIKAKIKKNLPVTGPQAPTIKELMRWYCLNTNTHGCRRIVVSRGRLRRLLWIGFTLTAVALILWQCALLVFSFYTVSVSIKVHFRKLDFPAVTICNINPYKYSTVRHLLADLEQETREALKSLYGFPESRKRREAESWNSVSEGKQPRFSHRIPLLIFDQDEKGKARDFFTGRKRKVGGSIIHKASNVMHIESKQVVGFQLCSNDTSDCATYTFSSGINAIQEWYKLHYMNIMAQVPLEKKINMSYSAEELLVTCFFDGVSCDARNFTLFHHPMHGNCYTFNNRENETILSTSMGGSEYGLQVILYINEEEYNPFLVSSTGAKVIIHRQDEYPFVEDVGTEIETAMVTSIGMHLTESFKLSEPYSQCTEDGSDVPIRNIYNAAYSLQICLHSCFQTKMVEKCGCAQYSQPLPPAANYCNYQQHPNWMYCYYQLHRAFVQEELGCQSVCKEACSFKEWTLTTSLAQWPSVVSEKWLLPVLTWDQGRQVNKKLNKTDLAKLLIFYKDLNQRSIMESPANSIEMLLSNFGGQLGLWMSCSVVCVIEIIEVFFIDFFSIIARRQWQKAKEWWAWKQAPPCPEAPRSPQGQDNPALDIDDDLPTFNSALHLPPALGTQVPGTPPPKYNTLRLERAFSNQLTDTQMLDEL

T2: alpha-ENaC (Homo sapiens, UniProt P37088)
T2 construct: expressed in transfected cells; host or cells: HEK293T
T2 sequence (P37088 1-669): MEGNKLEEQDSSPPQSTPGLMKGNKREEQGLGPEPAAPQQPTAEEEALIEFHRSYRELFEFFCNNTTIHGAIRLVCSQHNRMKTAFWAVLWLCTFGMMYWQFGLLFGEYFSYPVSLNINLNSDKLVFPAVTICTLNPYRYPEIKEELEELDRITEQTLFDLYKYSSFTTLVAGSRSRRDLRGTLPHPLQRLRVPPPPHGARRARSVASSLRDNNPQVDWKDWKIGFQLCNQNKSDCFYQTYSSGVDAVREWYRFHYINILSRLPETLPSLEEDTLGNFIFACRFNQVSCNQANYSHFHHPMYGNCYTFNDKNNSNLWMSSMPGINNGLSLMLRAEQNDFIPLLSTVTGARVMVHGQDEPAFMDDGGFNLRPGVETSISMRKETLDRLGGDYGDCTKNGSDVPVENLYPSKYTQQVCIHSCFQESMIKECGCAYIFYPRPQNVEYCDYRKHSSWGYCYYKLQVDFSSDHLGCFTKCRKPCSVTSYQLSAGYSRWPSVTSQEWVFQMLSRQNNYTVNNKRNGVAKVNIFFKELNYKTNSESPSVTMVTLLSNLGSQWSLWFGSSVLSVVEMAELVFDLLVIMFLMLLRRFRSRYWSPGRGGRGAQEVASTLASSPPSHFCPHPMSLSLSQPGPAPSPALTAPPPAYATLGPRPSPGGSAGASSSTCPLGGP

T3: ENaC (Homo sapiens, UniProt P37088+P51168+P51170)
T3 construct: Peptides were added mucosally to HBECs at 30 μM and ASL height measured 3 h later by XZ-confocal microscopy; endogenous in cells; host or cells: primary human bronchial epithelial cultures (HBECs) at air-liquid interface
T3 sequence (P37088 1-669): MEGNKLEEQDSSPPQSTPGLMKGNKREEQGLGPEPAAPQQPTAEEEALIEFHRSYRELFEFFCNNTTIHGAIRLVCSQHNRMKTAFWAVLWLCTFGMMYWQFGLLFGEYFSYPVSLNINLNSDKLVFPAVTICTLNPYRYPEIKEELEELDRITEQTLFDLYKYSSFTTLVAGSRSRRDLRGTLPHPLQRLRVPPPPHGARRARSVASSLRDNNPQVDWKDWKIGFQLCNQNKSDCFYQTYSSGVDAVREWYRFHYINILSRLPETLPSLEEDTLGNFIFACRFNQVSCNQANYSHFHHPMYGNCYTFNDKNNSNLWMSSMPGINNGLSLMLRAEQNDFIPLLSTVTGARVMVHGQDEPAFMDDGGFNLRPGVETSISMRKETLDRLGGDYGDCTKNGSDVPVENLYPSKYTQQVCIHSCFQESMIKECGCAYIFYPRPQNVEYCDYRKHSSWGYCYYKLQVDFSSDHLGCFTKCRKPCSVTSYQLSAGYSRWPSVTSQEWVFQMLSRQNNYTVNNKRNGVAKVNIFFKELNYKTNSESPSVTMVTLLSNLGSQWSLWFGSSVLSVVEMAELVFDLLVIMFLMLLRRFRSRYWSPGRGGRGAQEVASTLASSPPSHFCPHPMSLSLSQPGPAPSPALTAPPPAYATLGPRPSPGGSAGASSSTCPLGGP
T3 sequence (P51168 1-640): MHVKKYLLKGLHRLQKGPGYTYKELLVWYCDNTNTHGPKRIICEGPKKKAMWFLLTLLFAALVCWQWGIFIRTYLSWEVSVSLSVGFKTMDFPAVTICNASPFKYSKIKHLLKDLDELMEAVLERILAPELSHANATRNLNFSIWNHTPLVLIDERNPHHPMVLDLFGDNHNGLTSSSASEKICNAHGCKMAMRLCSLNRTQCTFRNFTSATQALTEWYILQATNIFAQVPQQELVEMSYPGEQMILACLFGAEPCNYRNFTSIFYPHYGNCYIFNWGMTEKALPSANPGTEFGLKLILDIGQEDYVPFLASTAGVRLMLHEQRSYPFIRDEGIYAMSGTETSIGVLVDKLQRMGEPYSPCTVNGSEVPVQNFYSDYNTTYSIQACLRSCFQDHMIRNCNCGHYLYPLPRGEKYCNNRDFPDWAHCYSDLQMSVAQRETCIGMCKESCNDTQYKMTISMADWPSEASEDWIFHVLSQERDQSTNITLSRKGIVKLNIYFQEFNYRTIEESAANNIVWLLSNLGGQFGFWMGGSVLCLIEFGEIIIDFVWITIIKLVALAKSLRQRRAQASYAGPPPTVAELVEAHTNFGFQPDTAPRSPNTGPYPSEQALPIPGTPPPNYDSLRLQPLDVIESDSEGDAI
T3 sequence (P51170 1-649): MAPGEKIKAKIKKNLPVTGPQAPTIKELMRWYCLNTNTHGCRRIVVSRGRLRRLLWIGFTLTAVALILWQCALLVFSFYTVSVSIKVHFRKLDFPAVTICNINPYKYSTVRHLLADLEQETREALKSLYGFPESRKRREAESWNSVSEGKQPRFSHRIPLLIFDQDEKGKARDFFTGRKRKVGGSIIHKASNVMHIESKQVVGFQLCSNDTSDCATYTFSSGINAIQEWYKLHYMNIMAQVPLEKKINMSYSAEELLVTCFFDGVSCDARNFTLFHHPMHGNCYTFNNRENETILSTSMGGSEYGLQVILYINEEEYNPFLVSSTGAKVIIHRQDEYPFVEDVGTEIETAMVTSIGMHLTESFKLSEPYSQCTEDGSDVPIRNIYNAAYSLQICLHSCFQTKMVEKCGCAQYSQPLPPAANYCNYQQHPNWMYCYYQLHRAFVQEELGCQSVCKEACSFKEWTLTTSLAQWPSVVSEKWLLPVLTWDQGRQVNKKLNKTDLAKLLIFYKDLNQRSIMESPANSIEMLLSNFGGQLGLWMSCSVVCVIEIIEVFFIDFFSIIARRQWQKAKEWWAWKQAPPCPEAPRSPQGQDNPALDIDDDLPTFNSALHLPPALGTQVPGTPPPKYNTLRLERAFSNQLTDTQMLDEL

B1: aaLPNlePLDQTaa (SEQ ID NO:5) (peptide)
peptide: [dA][dA]LP[Nle]PLDQT[dA][dA]-NH2
modifications: N-terminus assumed
SMILES: CCCC[C@H](NC(=O)[C@@H]1CCCN1C(=O)[C@H](CC(C)C)NC(=O)[C@@H](C)NC(=O)[C@@H](C)N)C(=O)N1CCC[C@H]1C(=O)N[C@@H](CC(C)C)C(=O)N[C@@H](CC(=O)O)C(=O)N[C@@H](CCC(N)=O)C(=O)N[C@H](C(=O)N[C@H](C)C(=O)N[C@H](C)C(N)=O)[C@@H](C)O

What was measured:
alpha-ENaC [1] = molecular target: T1, alpha-ENaC; assay: Internalization of alpha-ENaC in HEK293T cells, GFP-tagged alpha-ENaC co-expressed with beta and gamma ENaC; type: cell-based; conditions: beta-ENaC co-expressed, FIGS. 5A-5U
Description: (§1) HEK293T cells were transfected with gfp-αENaC where gfp was fused at the N-terminus of ENaC and unlabeled βENaC and γENaC using lipofectamine in 384 well plates as per the manufacturer's instructions and as published previously (see, e.g., Hobbs et al. Am J Physiol Lung Cell Mol Physiol. 2013 December; 305(12):L990-L1001. doi: 10.1152/ajplung.00103.2013. Epub 2013 October; Garland et al. Proc Natl Acad Sci USA. 2013 Oct. 1; 110(40):15973-8. doi: 10.1073/pnas.1311999110. Epub 2013 Sep. 16.; Tan et al. J Physiol. 2014 Dec. 1; 592(Pt 23):5251-68). Twenty-four hours later, peptide or vehicle control were added at t=0 and fluorescence was read using a Tecan M1000 plate reader 3 h later. Fluorescence was read at 488 nm (excitation)/510 nm (emission).

proteases = type: in vitro ADME
alpha-ENaC [2] = molecular target: T2, alpha-ENaC; assay: Internalization of alpha-ENaC in HEK293T cells, GFP-tagged alpha-ENaC co-expressed only with gamma ENaC and no beta-ENaC; type: cell-based; conditions: FIG. 6
Procedure: as §1, with “HEK293T cells were transfected with gfp-αENaC where gfp was fused at the N-terminus of ENaC and unlabeled βENaC and γENaC using lipofectamine in 384 well plates as per the manufacturer's instructions and as published previously (see, e.g., Hobbs et al.” left out

ENaC = molecular target: T3, ENaC; conditions: previously demonstrated (Hobbs et al., 2013); cited from earlier work
Heat stability = type: physicochemical
[3] = molecular target: epithelial Na+ channel (ENaC), endogenous in human bronchial epithelial cultures (human, UniProt P37088 1-669; P51168 1-640; P51170 1-649); assay: cell-based or functional assay

| Molecule | reduction of alpha-ENaC / functional receptor on the cell surface (alpha-ENaC [1]) | susceptibility to proteolytic degradation (proteases) | effect on alpha-ENaC (alpha-ENaC [2]) | EC50 for inhibition of ENaC (ENaC) | duration of ENaC inhibition following a single dose (ENaC) | heat stability (Heat stability) | IC50, dose response of ASL height on airway cells [3] |
| --- | --- | --- | --- | --- | --- | --- | --- |
| H-GGLPVPLDQTLPLNVNPA-NH2 [SEQ ID NO:1] | effective in reducing alpha-ENaC | resistant to proteolysis | no effect | sub micromolar | up to 24 h | heat-stable | – |
| B1 | – | – | – | – | – | – | 30 nM |
